We go through 4 compounds from ChEMBL document CHEMBL1152920, “Monoterpene glucosides from Paeonia lactiflora” (J Nat Prod, 2009).

The structures appear in SMILES notation. Active and inactive are the calls of the source. The calls are words filed in the database; no cut-off is given here.

The subject of the assay is PC-12. Briefly: Cytoprotective activity against hydrogen peroxide-induced cell damage in rat PC12 cells assessed as cell viability treated 2 hrs before hydrogen peroxide challenge by MTT assay. It counts as functional, cell-based.
In the case of `CC1=CC(=O)[C@@H]2C[C@@]1(O[C@@H]1O[C@H](CO)[C@@H](O)[C@H](O)[C@H]1O)OC=C2CO`, the outcome was Active. The result for `COCC1=CO[C@]2(O[C@@H]3O[C@H](CO)[C@@H](O)[C@H](O)[C@H]3O)C[C@H]1C(=O)C=C2C` reads “Active”; that for `C=C1C(OC)O[C@]2(O[C@@H]3O[C@H](CO)[C@@H](O)[C@H](O)[C@H]3O)C[C@H]1C(=O)C=C2C` (some centres undefined), “Active”; that for `COC1O[C@@]2(C)CC(=O)[C@@H]3C[C@]2(O[C@@H]2O[C@H](CO)[C@@H](O)[C@H](O)[C@H]2O)[C@]13CO` (some centres undefined), “Active”.
